{"source": "patent US4816482A", "about": "“Radioprotective agents having an amino-thioalkyl structure” (priority 1983, dated 1989)", "key": {"mice [1]": {"system": "mice", "assay": "Acute toxicity (LD50), i.p.", "type": "in vivo", "details": "for toxicity (in words): mouse, in vivo"}, "[2]": {"assay": "Acute toxicity (LD50), i.p.", "type": "in vivo, mice", "details": "mouse, in vivo, ip"}, "mice [3]": {"system": "mice", "assay": "Radioprotective activity: survival at the 30th day after irradiation", "type": "in vivo", "details": "for radioprotective activity (in words): mouse, in vivo; for responders at 600 mg/kg: 600 mg/kg i.p.", "protocol": "This study of radioprotective activity was carried out according to a technique described by M. Fatome at al., Eur. J. Med. Chem. 1977, 12, (1), 93. […] This dose is equal to 950 Rad.\nMore complete studies are recorded in Table II."}, "mice [4]": {"system": "mice", "details": "cited from earlier work"}, "normal tissues / tumours [5]": {"system": "normal tissues / tumours", "assay": "Selectivity of protection: normal tissues versus tumours", "details": "EMT6 and HT19 tumours, except if necrotised"}, "EMT 6 tumours": {"system": "EMT 6 tumours", "assay": "Gain factor (bone marrow FRD/tumour FRD) on EMT 6 tumours", "type": "in vivo", "details": "5×10^-1 survival level"}, "bone marrow": {"system": "bone marrow", "assay": "FRD on bone marrow", "details": "in vivo"}, "Chemical stability": {"assay": "Chemical stability", "type": "physicochemical", "details": "I 102 compared with WR 2721"}, "normal tissues / tumours [6]": {"system": "normal tissues / tumours", "details": "literature knowledge; cited from earlier work"}, "[7]": {"details": "cited from earlier work"}}, "note": "Entries after “also recorded” stand apart in the source; their conditions may differ. Structures can show the parent of a compound that is named as a salt. Where two headings read alike, the source gives them in different places."}
{"compound": "CC(=O)OC(CNC(=O)CN)CSC(C)=O", "note": "(stereo not drawn) [Example 32, TRIFLUOROACETATE]", "values": [{"measurement": "toxicity (in words)", "setting": "mice [1]", "result": "low toxicity"}, {"measurement": "LD50", "setting": "[2]", "result": "> 1500", "unit": "mg/kg"}, {"measurement": "LD50", "setting": "[2]; Table I", "result": 1500, "unit": "mg/kg"}, {"measurement": "LD50", "setting": "[2]; Table II", "result": 1500, "unit": "mg/kg"}, {"measurement": "survival at 30 days", "setting": "mice [3]; 250 mg/kg, 900 Rad", "result": 70, "unit": "%"}, {"measurement": "survival at 30 days", "setting": "mice [3]; 1,000 mg/kg, 1,100 Rad", "result": 80, "unit": "%"}, {"measurement": "responders at 1000 mg/kg", "setting": "mice [3]; Mus musculus, light or radiation study, ip, 720 h, Table I, 1,000 mg/kg i.p., 15' before irradiation at 900 or 950 Rad, read-out: % survival at the 30th day", "result": 100, "unit": "%"}, {"measurement": "responders at 1000 mg/kg", "setting": "mice [3]; Mus musculus, light or radiation study, ip, 720 h, Table II, 1,000 mg/kg i.p., 15' before irradiation, 900 Rad, read-out: % survival at 30 days", "result": 100, "unit": "%"}, {"measurement": "responders at 250 mg/kg", "setting": "mice [3]; Mus musculus, light or radiation study, ip, 720 h, Table II, dose not printed (250 mg/kg in text), 15' before irradiation, 900 Rad, read-out: % survival at 30 days", "result": 70, "unit": "%"}, {"measurement": "responders at 1000 mg/kg", "setting": "mice [3]; Mus musculus, light or radiation study, ip, 720 h, Table II, dose not printed (1,000 mg/kg in text), 15' before irradiation, 1,100 Rad, read-out: % survival at 30 days", "result": 80, "unit": "%"}]}
{"compound": "CC(=O)NCCSC(=O)CN.O=C(O)C(F)(F)F", "note": "[Example 34]", "values": [{"measurement": "LD50", "setting": "mice [1]; Table I", "result": "1,000 mg/kg"}, {"measurement": "LD50", "setting": "[2]; Table II", "result": 1000, "unit": "mg/kg"}, {"measurement": "radioprotective activity (in words)", "setting": "mice [3]", "result": "slight radioprotective action"}]}
{"compound": "C[C@H](N)C(=O)NCCSSCCNC(=O)[C@H](C)N.O=C(O)C(F)(F)F.O=C(O)C(F)(F)F", "note": "[Example 45, N,N'-[…] DI(TRIFLUOROACETATE)]", "values": [{"measurement": "toxicity (in words)", "setting": "mice [1]", "result": "low toxicity"}, {"measurement": "LD50", "setting": "[2]; Table I", "result": 1200, "unit": "mg/kg"}, {"measurement": "LD50", "setting": "[2]; Table II", "result": 1200, "unit": "mg/kg"}, {"measurement": "responders at 600 mg/kg", "setting": "mice [3]; Mus musculus, ip, 720 h, read-out: % survival at 30 days, Table II, 4th entry, time and Rad not given", "result": 50, "unit": "%"}, {"measurement": "responders at 150 mg/kg", "setting": "mice [3]; Mus musculus, light or radiation study, ip, 720 h, read-out: % survival at 30 days, Table II, 150 mg/kg i.p., 15' before irradiation, 900 Rad", "result": 20, "unit": "%"}, {"measurement": "responders at 600 mg/kg", "setting": "mice [3]; Mus musculus, light or radiation study, ip, 720 h, read-out: % survival at 30 days, Table II, 2 (hours, cut off) before irradiation, 900 Rad", "result": 50, "unit": "%"}, {"measurement": "responders at 600 mg/kg", "setting": "mice [3]; Mus musculus, light or radiation study, ip, 720 h, read-out: % survival at 30 days, Table II, 15' before irradiation, 900 Rad", "result": 100, "unit": "%"}, {"measurement": "responders at 600 mg/kg", "setting": "mice [3]; Mus musculus, light or radiation study, ip, 720 h, read-out: % survival at the 30th day, Table I, 15' before irradiation at 900 or 950 Rad", "result": 100, "unit": "%"}, {"measurement": "radioprotective activity (in words)", "setting": "mice [3]", "result": "good radioprotection"}]}
{"compound": "CC(C)(N)CSS(=O)(=O)O", "note": "[H2 N--(C(CH3)2 --CH2 --S--SO3 H]", "values": [{"measurement": "protection (in words)", "setting": "mice [4]; 600 mg/kg, J. R. Piper et al., J. Med. Chem. 1966", "result": "good protection"}]}
{"compound": "CC(=O)SCCNC(=O)CN", "note": "[I 102, N-glycyl-S-acetylcysteamine]", "values": [{"measurement": "LD50", "setting": "[2]", "result": "> 1500", "unit": "mg/kg"}, {"measurement": "protection of tumours (in words)", "setting": "normal tissues / tumours [5]", "result": "does not protect tumours (or protects them to only a small extent)"}, {"measurement": "gain factor (bone marrow FRD/tumour FRD)", "setting": "EMT 6 tumours", "result": 1.2}, {"measurement": "FRD on bone marrow", "setting": "bone marrow", "result": 1.4}]}
{"compound": "NCCCNCCSP(=O)(O)O", "note": "[WR 2721]", "values": [{"measurement": "chemical stability (in words)", "setting": "Chemical stability", "result": "unstable; also recorded: not very stable"}, {"measurement": "selectivity of protection (in words)", "setting": "normal tissues / tumours [6]", "result": "protecting normal tissues against radiation-induced damage, while allowing solid tumors to bear alone the effect of the radiation; also recorded: concentrates selectively in healthy cells and not in cancer cells; also recorded: concentrating selectively in normal tissues (and not in cancer cells); also recorded: selectively protects normal tissues against radiation-induced damage"}, {"measurement": "LD50", "setting": "mice [1]", "result": 950, "unit": "mg/kg"}, {"measurement": "gain factor (bone marrow FRD/tumour FRD)", "setting": "EMT 6 tumours", "result": 1.2}, {"measurement": "FRD on bone marrow", "setting": "bone marrow", "result": 2.7}, {"measurement": "solubility in water (in words)", "setting": "[7]", "result": "high solubility in water"}]}
{"compound": "NCC(O)CSP(=O)(O)O", "note": "(stereo not drawn) [WR 77913]", "values": [{"measurement": "survival at 30 days", "setting": "mice [4]; mice, 400 mg/kg (i.p.) 30 minutes before irradiation of 950, 970 Rad", "result": 100, "unit": "%"}]}
{"compound": "NCCS", "note": "[cysteamine, β-mercaptoethylamine]", "values": [{"measurement": "selectivity of protection (in words)", "setting": "normal tissues / tumours [6]", "result": "non-selective protection of the cells"}]}
{"compound": "N[C@@H](CS)C(=O)O", "note": "[cysteine]", "values": [{"measurement": "selectivity of protection (in words)", "setting": "normal tissues / tumours [6]", "result": "non-selective protection of the cells"}]}
